| melting point [°C] | Structure (SMILES) |
| --- | --- |
| 75.2 to 76.3 | COC(=O)c1ccc(COc2cc3c(=O)ccn4c5ccc(Br)cc5c(c2)c34)nc1 |
| 125 to 127 | CS(=O)(=O)Oc1cnc2cc(OC(F)(F)F)ccc2c1O |
| 190 to 191 | CC(=O)NC1=NN(c2ccccc2)CC1 |
| 218 to 219 | C=CCSc1cc(C(=O)O)cc(S(N)(=O)=O)c1Oc1ccccc1 |
| 31 | O=S=Nc1ccc(C(=O)Cl)cc1 |
| 106 to 109 | Cc1cccc(C)c1N(CC(C)N)S(C)(=O)=O (stereo not given) |
| 209 to 211 | [O-][N+]1=C(c2ccccc2)C2=NCCN2c2cc(N3CCNCC3)ccc21 |
| 280 to 282 | Cc1c(-c2ccc([N+](=O)[O-])cc2)sc2c1c(=O)n(-c1ccccc1)c(=O)n2Cc1c(F)cccc1F |
| 259 to 260 | O=C1C(O)=C(c2ccccc2)C(=O)C(O)=C1/C=C/c1ccccc1 |
| 74.7 | CC(=O)N(C)[C@@H]1CN2C(=O)N(c3cc(Cl)cc(Cl)c3)C(=O)[C@@]2(Cc2ccc(OC(F)(F)F)cc2)C1 |
| 60.7 | CCN(CC)C(=O)C=Cc1ccc(Cl)c(Cl)c1 |
| > 300 | CC1C(=O)Nc2cc(N)c(N)cc21 (stereo not given) |
| 193 to 194 | CCCCc1nc2cc[nH]c(=O)c2n1Cc1ccc([N+](=O)[O-])cc1 |
| 206 to 208 | O=C1c2ccccc2-c2c1c1ccccc1c(=O)n2C1CC1 |
| 137 to 139 | COc1ccc(C2=NN(c3ccc(C(=O)N4CCN(c5c(Cl)cncc5Cl)CC4)cc3)C(=O)[C@@H]3CC=CC[C@H]23)cc1OC |
| 150 to 152 | Nc1ncccc1C(=O)NCC1CCN(C[C@H]2COc3ccc(Cl)cc3O2)CC1 |
| 114 to 117 | CCC(CC)n1nnc2cc(C)c(C)c(N)c21 |
| 205 to 207 | CC(=O)Oc1ccc(C=CC(=O)O)cc1C=O |
| 114 to 121 | CC(=O)OC(C(Oc1ccccc1)n1ccnc1)C(C)(C)C (stereo not given) |
| 210 to 215 | Cc1nc(N2CCN(CC3CC3(F)F)C2=O)sc1C(=O)O (stereo not given) |
| 118 to 119 | CC[C@@H](C)NCc1cnc2c(C)c(NC(=O)c3ccc(OC[C@@H]4CCCO4)cc3)ccc2c1 |
| 144 to 145 | Oc1c(-c2ccccc2)cc(C2c3ccccc3-c3ccccc32)cc1-c1ccccc1 |
| 92 to 94 | CC(CCl)(CCl)c1cc(Cl)nnc1Cl |
| 79 to 80 | CNC(=O)N(C)C(=O)N1CCN(c2ccccc2)CC1 |

| melting point [°C] | Structure (SMILES) |
| --- | --- |
| 215 to 217 | Nc1nc(N)c(-c2cc(Cl)cc(Cl)c2Cl)c(CF)n1 |
| 206 to 210 | Cn1cc(CO)c(=O)c2cccc(F)c21 |
| 49 to 51 | O=C(O)C(Cl)(Cl)CCCCCCCCCCBr |
| 145 to 149 | COc1cc2c(cc1[N+](=O)[O-])N(C)C(=O)CNC2 |
| 235 to 237 | COc1ccc(N2CCN(Cc3ccc(Nc4ccnc5cc(C(F)(F)F)ccc45)cc3)CC2)cc1 |
| 305 to 310 | O=C(O)c1cccc2nc3ccc4[nH]ncc4c3nc12 |
| 172 to 174 | COc1cc(CC(=O)NCC(=O)N(CCC(=O)O)Cc2ccc(OC)c(OC)c2)ccc1NC(=O)Nc1ccccc1C |
| 125 to 127 | Cn1c2ccccc2c2cc(C(=O)N3CCOCC3)sc21 |
| 118 to 120 | COC(=O)[C@@H]1O[C@@H](c2ccccc2)N(NS(=O)(=O)c2ccc([N+](=O)[O-])cc2)[C@H]1c1ccccc1 |
| 179 to 184 | Cc1c(Cc2ccccc2)c(=O)n2c(CN(C)Cc3ccccc3)c(-c3ccc(NC(=O)OC(C)(C)C)cc3)nc2n1Cc1c(F)cccc1F |
| 165 to 167 | CC(CC(=O)Nc1cccc(/C=C/c2nc(C3CCC3)cs2)c1)C(=O)O (stereo not given) |
| 135 | CSc1ccc(CN(C)CCCCc2ccc(NC(=O)c3cccc4c(=O)c5ccccc5[nH]c34)cc2)cc1 |
| 61 to 62 | CC(c1c[nH]c([N+](=O)[O-])n1)N1CCCCC1 (stereo not given) |
| 188 to 189 | Cc1nc2ccccc2n2cnc(-c3nc(C4CC4)no3)c12 |
| 199 to 200 | COC(=O)c1cc2c(S(=O)(=O)Cl)cc(Cl)c(Cl)c2o1 |
| 206 to 218 | Cn1c(=O)[nH]c(N)c(NCc2ccccc2)c1=O |
| 126 to 127 | CC(C)NCC(O)COc1ccc2c(c1)C1CCC2c2ccccc21 (stereo not given) |
| 182 to 183 | Cc1c(C)c(N2CCN(c3ccc(C(F)(F)F)cc3)CC2)c(C)c2c1OC(C)(C)C2N1CCCCC1 (stereo not given) |
| 251 to 253 | CCn1cc(C(=O)O)c(=O)c2cc(F)c(N3CCC(CNC)C3)nc21 (stereo not given) |
| 122 to 123 | O=S(=O)(Nc1ccc(C(F)(F)F)cc1Cl)c1cc(C(F)(F)F)ccc1Cl |
| 67 | Nc1ncnc2c1ncn2CCCCOCP(=O)(O)O |
| 73 to 75 | CC(C)(O)CCCCCc1cccc(CCc2ccc(O)c(CO)c2)c1 |
| 138 to 140 | O=C(c1ccc(F)c(F)c1)N1CCC[C@H](c2nc(-c3ccc([N+](=O)[O-])cc3)no2)C1 |
| 230 to 232 | CCn1cc(C(=O)O)c(=O)c2ccc(-n3cccc3)nc21 |

| melting point [°C] | Structure (SMILES) |
| --- | --- |
| 164 to 165 | Cc1ccc(C#Cc2ccc(NC(=O)OC(C)(C)C)c([N+](=O)[O-])c2)cc1 |
| 181 to 183 | COc1ccc2c(Cl)nncc2c1 |
| 157 to 159 | O=C1NCCC1=Cc1ccccc1OCC(O)CN1CCC(c2ccc3c(c2)CCCC3)CC1 (stereo not given) |
| 181 | CC(C)(C)c1cc(C(=NNc2ccccc2)c2cccnc2Cl)cc(C(C)(C)C)c1O |
| 168 to 170 | O=C(NCc1ccn(-c2cc3nc(C(=O)O)c(=O)[nH]c3cc2C(F)(F)F)c1)Nc1ccc(F)cc1 |
| 195 to 196 | C[C@H](NC(=O)CCC(=O)NO)C(=O)N1CCC[C@H]1C(=O)O |
| 166 | O=C1NC(O)c2cccn2-c2sccc21 (stereo not given) |
| 223 to 226 | COc1ccc2nc(NC(=O)C(CC3CCCC3)c3ccc(S(=O)(=O)Nc4ccccc4)cc3)sc2n1 (stereo not given) |
| 120 to 122 | CC(C)c1nc(COCc2ccccc2)n(Cc2ccccc2)c1Sc1cccc(Cl)c1 |
| 131 to 135 | O=C(CC(Cc1cccc2ccccc12)C(=O)O)NCCc1ccccc1 (stereo not given) |
| 121 to 124 | CC(=O)c1ccc2c(c1)C(C)(C)C(O)CC2(C)C (stereo not given) |
| 198 to 200 | CC(C)(C)OC(=O)c1nc(-c2ccc(Cl)cc2Cl)n(-c2ccc(Cl)cc2)c1Br |
| 206 to 208 | OC1CSC(Oc2cncc(-c3ccccc3F)c2)C(O)C1O (stereo not given) |
| 186 to 190 | COc1cc2sc(C(=N)NO)cc2c(F)c1OC |
| 129 to 131 | CNC(=S)c1c(C(F)(F)F)nc(C(F)F)c(C(=O)OC)c1NC(C)C |
| 227 to 230 | Cc1cc(C(C)(C)C)c(O)c(C)c1COC(=O)c1ccc(C(=O)OCc2c(C)cc(C(C)(C)C)c(O)c2C)cc1 |
| 212 to 214 | Cc1cccc2c1C(=O)N1CCCC1C(=O)N2 (stereo not given) |
| 237 | COc1ccccc1-n1c(C(S)c2ncnc3[nH]cnc23)nc2cccc(Cl)c2c1=O (stereo not given) |
| 56 to 59 | O=C(O)CCCCCCCCCCCCCCCOCc1ccccc1 |
| 180 to 184 | CCc1noc(-c2ncc3[nH]c4cccc(OCc5ccccc5)c4c3c2COC)n1 |
| 179 to 181 | CN(C)c1cc(CC(C#N)CNc2ccccc2)cc(N(C)C)c1N(C)C (stereo not given) |
| 76 to 78 | CC(SC#N)C(=O)N(CC(=O)OC(C)(C)C)C1CCCC1 (stereo not given) |
| 237 to 238 | COc1nc(S(C)(=O)=O)cnc1NS(=O)(=O)c1cccc(Cl)c1Cl |
| 114 to 116 | COc1cc(CCl)c(CCl)cc1OCc1ccccc1 |

| melting point [°C] | Structure (SMILES) |
| --- | --- |
| 164 to 165 | O=C1c2ccccc2C(=O)N1CC#CC1=CCN=C(c2ccccc2F)c2cc(Cl)ccc21 |
| 96 | CC(C)(C)OC(=O)N(CCCCCCN1C(=O)c2ccccc2C1=O)CCN(CCCCCCN1C(=O)c2ccccc2C1=O)C(=O)OC(C)(C)C |
| 110 to 112 | CSCc1c(N)c([N+](=O)[O-])cc(F)c1F |
| 168 to 169 | O=C(NCc1ccc2c(c1)OCO2)c1ccc2n1Cc1ccccc1N(C(=O)COc1ccc(Cl)cc1)C2 |
| 185 to 187 | CCOCc1nc2c(N)nc3c(c2n1NCCCNC(=O)NC(C)C)CCCC3 |
| 206 to 207 | Cc1ccc(-c2csc(/C=C/C(=O)O)c2)cc1 |
| 208 to 209 | CS(=O)(=O)c1c(C(=O)O)ccc(Cl)c1F |
| 118 to 121 | Cc1cccc(-c2[nH]c(C(C)C)nc2-c2ccc(F)c(-c3ccc(C)[nH]3)c2)n1 |
| 101 to 105 | Nc1nc(N)c(-c2cc(Cl)cc(Cl)c2Cl)c(CO)n1 |
| 120 | Cc1oc(-c2ccccc2)nc1CCOc1ccc(CC(C(=O)O)c2nc(-c3ccccc3)oc2C)cc1 (stereo not given) |
| 215 to 216 | Clc1cc2nc(Cl)c(I)n2cc1Cl |
| 165 to 167 | CC(C)(C)c1cc(N=C=O)no1 |
| 185 to 186 | N#CSc1nc(Cl)ncc1I |
| 159 to 161 | Nc1nc2ccccc2c2c1ncn2CCOCCCc1cncnc1 |
| 93 to 98 | CN(CC(C)(C)NCc1c(CO)ccc(OCc2ccccc2)c1CO)c1ccccc1 |
| 128 to 129 | CNC(=O)C(=NOC)c1ccccc1C#Cc1ccccc1C |
| 273 | N#CC1=C(C2CCCCC2=O)Nc2n[nH]cc2C1c1cccc(C#N)c1Br (stereo not given) |
| 142 to 143 | CN(CCF)C(=O)c1cc2ccccc2c(-c2ccccc2I)n1 |
| 184 | CCN(CC)c1ccc(C(=O)c2ccccc2C(=O)O)cc1 |
| 134 to 136 | Oc1cccc2c1CCC2N1CCCCC1 (stereo not given) |
| 197 to 199 | CCOC(=O)c1cnc2c(NC(=O)c3c(Cl)cccc3Cl)cccc2c1S |
| 160 to 162 | Cn1c2ccccc2c(=O)c2c(-c3ccccc3NC(=O)C(C)(C)C)cccc21 |
| 79 | CSC(=S)C1(c2ccccn2)CCCCS1 (stereo not given) |
| 98.5 to 99.4 | C(#Cc1ccccn1)CCc1nc2ccccc2s1 |

| Structure (SMILES) | melting point [°C] |
| --- | --- |
| CC12CCC3C(CCC4=C(N)C(=O)CCC43C)C1CCC2=O (stereo not given) | 186 to 188 |
| CN(C)S(=O)(=O)c1ccc(C#N)c(C(F)(F)F)c1 | 133 to 136 |
| CCCCCCCCc1cc2c(s1)-n1c(C)nnc1CN=C2c1ccccc1Cl | 80 to 82 |
| COC(=O)C(=O)NCCSC(c1ccccc1)c1ccccc1 | 88 to 89 |

Source: a melting point compilation (Tetko et al.; mined from patent text by program, amines drawn as free bases though some values may be those of a salt)
